# Measurements published in patent US6723858B2, “Estrogenic compounds as anti-mitotic agents” (The Children's Medical Center Corporation, priority 1993, dated 2004).
# Experiments:
# tubulin [1] = assay: inhibition of tubulin polymerization in vitro (turbidity at 350 nm); format: biochemical; settings: for IC50: read-out: IC50 (concentration required to inhibit tubulin polymerization by 50%), method of Example 1, average ± S.D., obtained graphically
# Description: Anti-mitotic activity can be evaluated by testing the ability of an estradiol derivative to inhibit tubulin polymerization and microtubule assembly in vitro. Microtubule assembly is followed in a Gilford recording spectrophotometer (model 250 or […]) equipped with electronic temperature controllers. […] The 0.24 ml reaction mixtures are incubated for 15 min. at 37° C. and then chilled on ice. After addition of 10 μl 2.5 mM GTP, the reaction mixture is transferred to a cuvette at 0° C., and a baseline established. At time zero, the temperature controller of the spectrophotometer is set at 37° C. Microtubule assembly is evaluated by increased turbity at 350 nm. […] The 0.24 ml reaction mixtures were incubated for 15 min at 37° C. and chilled on ice. After addition of 10 μl of 2.5 mM GTP the reaction mixtures were transferred to cuvettes held at 0° C., and baselines were established. At time zero the temperature controller was set at 37° C. At the times indicated by the vertical dashed lines the temperature controller was set at the indicated temperatures. […] The 0.24 ml reaction mixtures were incubated for 15 min at 26° C. and chilled on ice. After addition of 10 μl of 10 mM GTP the reaction mixtures were transferred to cuvettes held at 0° C., and baselines were established. At time zero the temperature controller was set at 26° C. At the time indicated by vertical dashed line the temperature controller was set at 0° C.
# tubulin [2] = assay: inhibition of [3H]colchicine binding to tubulin; settings: 1.0 μM tubulin, 5% DMSO, 10 min at 37° C.; for Percent inhibition ± S.D. of colchicine binding to tubulin: 100 μM inhibitor, 2 μM [3H]colchicine
# Description: Incubation was for 10 min at 37° C.
# Incubation was for 10 min at 37° C. […] S.D., standard deviation.
# [3] = test system: chick embryo chorioallantoic membrane new blood vessel cells (angiogenesis); assay: chick embryo chorioallantoic membrane (CAM) assay; format: in vivo; settings: 100 mg disk (methylcellulose disc) on CAM, after 48 hours
# Description: Anti-mitotic activity is evaluated in situ by testing the ability of an improved estradiol derivative to inhibit the proliferation of new blood vessel cells (angiogenesis). A suitable assay is the chick embryo chorioallantoic membrane (CAM) assay described by Crum et al. Science 230:1375 (1985). See also, U.S. Pat. No. 5,001,116, hereby incorporated by reference, which describes the CAM assay. Briefly, fertilized chick embryos are removed from their shell on day 3 or 4, and a methylcellulose disc containing the drug is implanted on the chorioallantoic membrane. The embryos are examined 48 hours later and, if a clear avascular zone appears around the methylcellulose disc, the diameter of that zone is measured.
SMILES,IC50 (tubulin [1]) [µM],other results
COc1c(O)ccc2c1CCC1C2CCC2(C)C(O)CCC12 (stereo not shown) [4-Methoxyestradiol],> 40,–
C[C@]12CC[C@@H]3c4cc(F)c(O)cc4CC[C@H]3[C@@H]1CC[C@@H]2O [2-Fluoroestradiol],27 ± 6,–
C#C[C@]1(O)CC[C@H]2[C@@H]3CCc4cc(O)c(OC)cc4[C@H]3CC[C@@]21C [2-Methoxy-17-ethynylestradiol],> 40,–
C[C@]12CC[C@@H]3c4cc(Br)c(O)cc4CC[C@H]3[C@@H]1CC[C@@H]2O [2-Bromoestradiol],4.5 ± 0.6,–
COc1ccc2c(c1OC)CCC1C2CCC2(C)C(O)CCC12 (stereo not shown) [4-Methoxyestradiol-3-O-methyl ether],> 40,–
COc1cc2c(cc1O)CCC1C2CCC2(C)C(O)CCC12 (stereo not shown) [2-Methoxyestradiol],1.9 ± 0.2,inhibition of tubulin polymerization (FIG. 1) (tubulin [1]; 20-75 μM at 37° C. (A) or 1.0-4.0 μM at 26° C. (B)): inhibition of tubulin polymerization; inhibition of colchicine binding to tubulin (FIG. 2) (tubulin [2]; 5 μM [3H]colchicine): inhibits colchicine binding to tubulin; Percent inhibition ± S.D. of colchicine binding to tubulin (tubulin [2]): 82 ± 2%; inhibition of cell mitosis and growth of new blood vessels [3]: inhibit cell mitosis and the growth of new blood vessels
"C[C@]12CC[C@@H]3c4ccc(O)cc4CC[C@H]3[C@@H]1C[C@@H](O)[C@@H]2O [Estriol, reference compound]",> 40,–
COc1cc2c(cc1OC)C1CCC3(C)C(O)CCC3C1CC2 (stereo not shown) [2-Methoxyestradiol-3-O-methyl ether],> 40,–
COc1cc2c(cc1O)CC[C@@H]1[C@@H]2CC[C@]2(C)[C@@H](O)[C@H](O)C[C@@H]12 [2-Methoxyestriol],> 40,–
"C#C[C@]1(O)CC[C@H]2[C@@H]3CCc4cc(O)ccc4[C@H]3CC[C@@]21C [17-Ethynylestradiol, reference compound]",10 ± 2,Percent inhibition ± S.D. of colchicine binding to tubulin (tubulin [2]): 50 ± 7%
"COc1ccc(CCc2cc(OC)c(OC)c(OC)c2)cc1O [Dihydrocombretastatin A-4, reference compound]",0.63 ± 0.03,–
COc1cc2c(cc1O)CC[C@@H]1[C@@H]2CC[C@]2(C)C(=O)CC[C@@H]12 [2-Methoxyestrone],8.8 ± 1,Percent inhibition ± S.D. of colchicine binding to tubulin (tubulin [2]): 57 ± 6%
COc1ccc2c(c1)CC[C@@H]1[C@@H]2CC[C@]2(C)[C@@H](O)CC[C@@H]12 [Estradiol-3-O-methyl ether],> 40,–
